In patent US4055640A, “Compositions and methods for controlling the growth of bacteria, fungi and algae using certain derivatives of N-(2,2-dichlorovinyl)salicylamides” (Nippon Kayaku Co., Ltd., priority 1975, dated 1977):
≈ marks a conversion by molar mass, not a printed value. Structures can show the parent of a compound that is named as a salt.

Legend:
[1] = test system: Aspergillus niger, Penicillium citrinum, Cladosporium harbarum and chaetomium globosum; test: Degree of growth inhibition of fungi on treated beach plates (Example 25); assay type: cell-based; design: scale not given here; settings: numerical rating, 2 weeks
How it was run: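 Beech plates 5 cm square and 5 mm thick were dipped for 2 min in emulsifiable concentrate diluted 400- and 800-fold in water, then dried 24 h at room temperature. Plates were set on agar, sprayed with fungal spore suspensions and incubated 2 weeks at 28 °C and 95% humidity; growth inhibition was scored on a numerical rating.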

Staphylococcus aureus = test: Growth inhibition zone around treated cotton cloth (Example 18); assay type: cell-based; settings: emulsifiable concentrate diluted 1000 times
Protocol: (§1) The emulsifiable concentrates which were prepared by Example 10 were diluted with water 1000 times to form an emulsion. A cloth of cotton was soaked into each emulsion for 2 minutes. The clothes were dried at room temperature and cut into a square of which a side was 1 cm long. Each kind of test bacteria and fungi was inoculated, separately on plates of potato-agar and one square cloth was placed on each of such plates. Test bacteria and fungi were cultivated at 28° C for 4 days. The width of the region of growth-inhibition which was formed a circumference of the cloth was examined.

Penicillium Citrinum = test: as above; assay type: cell-based; settings: emulsifiable concentrate diluted 1000 times
Protocol: as §1

Aspergillus niger [2] = test: as above; assay type: cell-based; settings: emulsifiable concentrate diluted 1000 times
Protocol: as §1

Bacillus subtilis = test: as above; assay type: cell-based; settings: emulsifiable concentrate diluted 1000 times
Protocol: as §1

[3] = test system: Aspergillus niger, Penicillium citrinum, Cladosporium harbarum and chaetomium globosum; test: Degree of growth inhibition of fungi on treated beach plates (Example 17); assay type: cell-based; design: scale not given here; settings: numerical rating, 2 weeks
How it was run: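 Beech plates were dipped for 2 minutes in emulsifiable concentrate diluted 400- and 800-fold in water, then dried for 24 hours. They were laid on agar and sprayed with spores of each fungus, then incubated at 95% humidity and 28° C for 2 weeks. Growth inhibition was scored on a numerical rating scale.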

[4] = test system: bacteria gathered from circular water system; test: Degree of propagation on slime test boards (Example 19); assay type: cell-based; design: key: -: no propagation; +: the area of propagation is 1 - 25% on the slime test boards.; ++: the area of propagation is 26 - 50% on the slime test boards.; +++: the area of propagation is 51 - 75% on the slime test boards.; ++++: the area of propagation is 76 - 100% on the slime test boards
Protocol: (§2) Zero point zero two (0.02) part of active compounds in the form of 10% water soluble concentrate which was prepared by Example 13 was added into 100 parts of Waxman's liquid medium. Pieces of wood and iron (hereafter referred to as the slime test boards) were soaked into the Waxman's liquid medium. The bacteria which were gathered from circular water system were inoculated upon the Waxman's liquid medium and incubated at 27° C-34° C by shaking culture. The degree of propagation of the bacteria on the slime test boards was examined.
(§3) The growth-inhibiting activity of active compounds against the fungi and the green algae was also examined by the same method as mentioned above.
(§4) The degree of propagation of the bacteria, fungi or green algae on the slime test boards is defined in terms of the following symbols.

fungi = test: as above; assay type: cell-based; design: key: -: no propagation; +: the area of propagation is 1 - 25% on the slime test boards.; ++: the area of propagation is 26 - 50% on the slime test boards.; +++: the area of propagation is 51 - 75% on the slime test boards.; ++++: the area of propagation is 76 - 100% on the slime test boards
Protocol: as §2, §3, §4

green algae = test: as above; assay type: cell-based; design: key: -: no propagation; +: the area of propagation is 1 - 25% on the slime test boards.; ++: the area of propagation is 26 - 50% on the slime test boards.; +++: the area of propagation is 51 - 75% on the slime test boards.; ++++: the area of propagation is 76 - 100% on the slime test boards
Protocol: as §2, §3, §4

[5] = test system: fungi in the paints or the cutting oil; test: Growth of fungi in paints or cutting oil (Example 11); settings: oil soluble concentrate, 0.1%
Protocol: The above ingredients were mixed. An oil soluble concentrate was obtained. In the form of the oil soluble concentrate, Compound No. 1 was added to paints or the cutting oil in an amount of 0.1%.

Penicillium citrenum = test: Growth inhibition zones around treated clothes (Example 16); assay type: cell-based
Protocol: (§5) The emulsifiable concentrate which was prepared by Example 10 and which contained 10% of Compound No. 1 was entered to three vessels. These emulsifiable concentrates were diluted with water 500 times, 1000 times and 2000 times respectively. Emulsions were obtained. Each of silk, cotton and vinylon clothes was dipped into the three different concentrations of emulsions for 3 minutes and dried for 24 hours at room temperature. The clothes dreid were cut into a square of which a side was 1 cm long.
(§6) Test bacteria and fungi were inoculated on the whole surfaces of the plates of potato-dextrose agar medium. The square clothes were placed on the plates of agar culture medium of potato. The inoculated bacteria and fungi were incubated at 28° C for 4 days. The width of zones in which the growth of the test bateria and fungi was inhibited in the environment of the clothes was measured.

Aspergillus niger [6] = test: as above; assay type: cell-based
Protocol: as §5, §6

Chaetomium globosum = test: Minimum inhibitory concentration, dilution methods (Example 14); assay type: cell-based
Excerpt: (§7) Bacteriocidal activity and fungicidal activity of the active compounds of the present invention were examined by potato-dextrose agar dilution method, [2] waxman's liquid medium dilution method or [3] glucose bouillon medium dilution method. The results are shown in Table 4 below as the minimum inhibitory concentration (the minimum concentration of active compound found to produce 100% control of the test bacteria and fungi).

Geotrichum candium = test: as above; assay type: cell-based
Excerpt: as §7

[7] = (1) potato-dextrose agar dilution method
[8] = (2) waxman's liquid medium dilution method

In the case of `CC(=O)Oc1ccccc1C(=O)NC=C(Cl)Cl` [Compound No. 6, O-acetyl-N-(2,2-dichlorovinyl) salicylamide], the “Degree of growth inhibition” value ([1]; 0.0125 %) is reported as 3 and the “Degree of growth inhibition” value ([1]; 0.025 %) is reported as 3.
For `O=C(NC=C(Cl)Cl)c1ccccc1O` [Compound No. 20, sodium salt of N-(β,β-dichlorovinyl) salicylamide], the “width of the growth inhibition zone” value (Staphylococcus aureus) was 7 mm, the “width of the growth inhibition zone” value (Penicillium Citrinum) was 7 mm and the “width of the growth inhibition zone” value (Aspergillus niger [2]) was 6 mm. For the same compound, the “width of the growth inhibition zone” value (Bacillus subtilis) was 8 mm, the “Degree of growth inhibition” value ([3]; 0.0125 %) was 3 and the “Degree of growth inhibition” value ([3]; 0.025 %) was 3. The Degree of propagation ([4]; 7th day) was “-”, the Degree of propagation ([4]; 14th day) was “-” and the Degree of propagation ([4]; 21st day) was “-”. The Degree of propagation (fungi; 7th day) was “-”, the Degree of propagation (fungi; 14th day) was “-” and the Degree of propagation (fungi; 21st day) was “-”. The Degree of propagation (green algae; 7th day) was “-”, the Degree of propagation (green algae; 14th day) was “-” and the Degree of propagation (green algae; 21st day) was “-”.
With `O=C(NC=C(Cl)Cl)c1ccccc1O` [Compound No. 1, N-(β,β-dichlorovinyl) salicylamide] the “growth of fungi in the paints or the cutting oil” value [5] was “controlled”, the “width of growth inhibition zones” value (Penicillium citrenum; Cotton, 0.005 %) was 5 mm and the “width of growth inhibition zones” value (Penicillium citrenum; Cotton, 0.01 %) was 7 mm. For the same compound, the “width of growth inhibition zones” value (Penicillium citrenum; Cotton, 0.02 %) was 9 mm, the “width of growth inhibition zones” value (Penicillium citrenum; Silk, 0.005 %) was 4 mm and the “width of growth inhibition zones” value (Penicillium citrenum; Silk, 0.01 %) was 6 mm. For the same compound, the “width of growth inhibition zones” value (Penicillium citrenum; Silk, 0.02 %) was 7 mm, the “width of growth inhibition zones” value (Penicillium citrenum; Vinylon, 0.005 %) was 3 mm and the “width of growth inhibition zones” value (Penicillium citrenum; Vinylon, 0.01 %) was 5 mm. The “width of growth inhibition zones” value (Penicillium citrenum; Vinylon, 0.02 %) was 7 mm, the “width of growth inhibition zones” value (Aspergillus niger [6]; Cotton, 0.005 %) was 6 mm and the “width of growth inhibition zones” value (Aspergillus niger [6]; Cotton, 0.01 %) was 8 mm. The “width of growth inhibition zones” value (Aspergillus niger [6]; Cotton, 0.02 %) was 11 mm, the “width of growth inhibition zones” value (Aspergillus niger [6]; Silk, 0.005 %) was 5 mm and the “width of growth inhibition zones” value (Aspergillus niger [6]; Silk, 0.01 %) was 7 mm. For the same compound, the “width of growth inhibition zones” value (Aspergillus niger [6]; Silk, 0.02 %) was 8 mm, the “width of growth inhibition zones” value (Aspergillus niger [6]; Vinylon, 0.005 %) was 4 mm and the “width of growth inhibition zones” value (Aspergillus niger [6]; Vinylon, 0.01 %) was 6 mm. For the same compound, the “width of growth inhibition zones” value (Aspergillus niger [6]; Vinylon, 0.02 %) was 8 mm, the MIC (Chaetomium globosum; [7]) was 5 µg/mL (≈ 21.5 µM) and the MIC (Chaetomium globosum; [8]) was 10 µg/mL (≈ 43.1 µM). It also gave an MIC (Geotrichum candium; [7]) of 10 µg/mL (≈ 43.1 µM) and an MIC (Geotrichum candium; [8]) of 20 µg/mL (≈ 86.2 µM).
